Data from article PMC11301756, “The crystal structure of Shethna protein II (FeSII) from Azotobacter vinelandii suggests a domain swap” (Acta Crystallographica Section D: Structural Biology, 2024).

B1: Shethna protein II (FeSII) from Azotobacter vinelandii (natural protein, UniProt Q44501 1-122, looked up)
chain: MATIYFSSPLMPHNKKVQAVAGKRSTLLGVAQENGVKIPFECQDGNCGSCLVKITHLDGERIKGMLLTDKERNVLKSVGKLPKSEEERAAVRDLPPTYRLACQTIVTDEDLLVEFTGEPGGA
notes: FeSII (Shethna protein II), adrenodoxin-type 2Fe-2S ferredoxin of Azotobacter vinelandii, locus AVIN_39700; synthetic gene in pRSET-A with no tag, amplified with primers from the start codon (ATGGCGACGATCTATTTCAGCAGC) to the stop codons; Carries a 2Fe-2S cluster; prepared aerobically (oxidized); Five copies in the asymmetric unit of the crystal; also called FeSII protein; source: E. coli …

Tests used:
[1] = target: T1, FeSII (Shethna protein II) (Azotobacter vinelandii, UniProt Q44501); assay: X-ray crystal structure (Fe-SAD); assay type: binding; settings: intrinsic cluster, protein prepared and crystallized aerobically (oxidized); pH 8.0; five copies in asymmetric unit, one closed and four open (domain-swapped)
T1 construct: synthetic gene in pRSET-A, no tag, expressed in E. coli KRX; about 13 kDa; dimer in solution; prepared aerobically (oxidized)
T1 sequence (Q44501 2-122 limits assumed): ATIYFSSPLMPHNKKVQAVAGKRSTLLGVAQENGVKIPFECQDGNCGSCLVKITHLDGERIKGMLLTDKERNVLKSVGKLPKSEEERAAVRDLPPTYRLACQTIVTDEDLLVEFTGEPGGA

[2] = target: the molecule itself; assay: crystal structure; FeSII alone, hanging-drop vapour diffusion, 0.1 M HEPES pH 8.0, 0.2 M sodium citrate, 24% PEG 3350, 2% 1-butanol, 40 mg/ml FeSII; P2(1)2(1)2, 1.65 Å, Fe-SAD; dimers between chains and crystallographic symmetry mates

| Molecule | X-ray crystal structure (Fe-SAD), 1.65 A [1] | binding result [2] |
| --- | --- | --- |
| [S]1[Fe][S][Fe]1 [2Fe–2S cluster] | In chain E (salmon) in the crystal, the lid helix from chain E covers the iron–sulfur cluster | – |
| B1 | – | binds |
